Measured values reported in patent US20090074876A1, “PEPTIDE COMPOSITION AND A METHOD OF PROMOTING CARTILAGE FORMATION” (Acologix, Inc., priority 2007, published 2009).
Where a SMILES comes first, the peptide text is derived from it.

Tests used:
[1] = system: osteochondral defect in goat stifle joint; settings: in vivo
Procedure: In this study, the use of two different concentrations (See Table 1) of AC-100 in conjunction with a collagen sponge and a control with just the collagen sponge was implanted to evaluate the efficacy of AC-100 in repair of bone and cartilage (osteochondral) defects. The implants were intended to serve as an osteochondral allograft for cellular and matrix ingrowth. Efficacy to repair cartilage was assessed using gross and histological examination of the repair tissue. The primary objective was to determine whether AC-100 modifies and/or improves the healing of the osteochondral defect as compared to the study control group and the natural progression of historical controls using this model. This report describes the in vivo, gross and histological findings at the 12 and 24 weeks time points.
A single full-thickness chondral defects were created in the right hind leg stifle joint. The lesion site was located in the anterior medial femoral condyle. The basic surgical procedure was identical for all subjects. All surgeries were performed under strict asepsis. […]
Postoperative checks were made for any animal displaying signs of postoperative discomfort. […] All treatments were recorded in the appropriate study documentation. […]
Animals were humanely sacrificed at Day 84 (12 weeks) or Day 168 (24 weeks) postoperatively. Bodyweights were recorded immediately prior to sacrifice. […]

[2] = system: human mesenchymal stem cells (hMSC); test: proliferation assay with human mesenchymal stem cells, tritiated thymidine incorporation; type: cell-based; settings: as compared to the vehicle
Procedure: The peptide of SEQ ID NO:34 was tested for its proliferation activity on human mesenchymal stem cells as compared to CMP-2 and IGF-1.
The same protocol and positive controls were used in this experiment.
SEQ ID NO:34 was selected for this experiment since the amino acid sequence of this peptide was derived from the corresponding region in rat and mouse MEPE where AC-100 was derived from human MEPE. Furthermore, as compared to all other known mammalian corresponding regions to AC-100, it is the least homologous to AC-100 (the human sequence).

[3] = system: 8 mm diameter defect in the rat parietal bones; test: rat calvaria defect model, bone bridging; type: in vivo; settings: collagen sponge in defect, daily s.c. injections for 6 days, 28 days post-surgery, histology qualitative score; vs saline and AC-100
Procedure: AC-101, 102, and 103 were tested for their defect bridging activities as compared to AC-100.
As a next step, necessity of RGD integrin-binding motif (SEQ ID NO:42) and SGDG glycosaminoglycan attachment motif (SEQ ID NO:43) to the bone formation activities was examined by testing the selected peptides synthesized in EXAMPLE 1 in a rat calvaria defect model. In this model an 8 mm diameter defect is created in the rat parietal bones and a collagen sponge cut to size is inserted into the defect. The test article is soaked into the sponge. Sub-cutaneous injections are administered daily for 6 days post-surgery. After 28 days post-surgery the rats are euthanized and the calvariae collected. The degree of bone bridging was determined by histology analysis using a qualitative scoring system. The tested peptides were SEQ ID NO: 22, 23, and 24, which were also encoded as AC-101, AC-102, and AC-103, respectively.
AC-100 that includes both the RGD integrin-binding motif and the SGDG glycosaminoglycan attachment motif was used as a positive control at the optimal dose.

Compound	proliferation activities of the hMSC by tritiated-thymidine incorporation [2]	degree of bone bridging [3]	also measured
CC[C@H](C)[C@H](NC(=O)[C@H](CC(=O)O)NC(=O)[C@H](CC(N)=O)NC(=O)[C@H](CC(=O)O)NC(=O)CNC(=O)[C@H](CCCNC(=N)N)NC(=O)[C@H](CCC(=O)O)NC(=O)[C@H](CCC(N)=O)NC(=O)[C@H](CC(C)C)NC(=O)[C@H](CC(=O)O)NC(=O)[C@@H](N)[C@@H](C)O)C(=O)N[C@@H](CO)C(=O)N1CCC[C@H]1C(=O)N[C@@H](Cc1ccccc1)C(=O)N[C@@H](CO)C(=O)NCC(=O)N[C@@H](CC(=O)O)C(=O)NCC(=O)N[C@@H](CCC(N)=O)C(=O)N1CCC[C@H]1C(=O)N[C@@H](Cc1ccccc1)C(=O)N[C@@H](CCCCN)C(=O)N[C@@H](CC(=O)O)C(N)=O [AC-100] (H-TDLQERGDNDISPFSGDGQPFKD-NH2)	–	–	adverse events [1]: No adverse events were identified; inflammatory response in sections [1]: no evidence of an inflammatory response
IGF-1: Insulin-like Growth Factor-1, positive control in hMSC proliferation assay	Significant proliferation activities	–	–
PDLLVRGDNDVPPFSGDGQHFMH [SEQ ID NO:34]	Significant proliferation activities	–	–
TDLQEDGRNDISPFGDGSQPFKD [AC-103]	–	improved versus saline treatment alone and was comparable to the activity of AC-100	–
TDLQEDGRNDISPFSGDGQPFKD [AC-101]	–	improved versus saline treatment alone and was comparable to the activity of AC-100	–
TDLQERGDNDISPFGDGSQPFKD [AC-102]	–	improved versus saline treatment alone and was comparable to the activity of AC-100	–
